# Test: Lipid-absorption suppressive activity: plasma triglyceride after oral salad oil tolerance
# Format: in vivo, male ddy line mice
# Protocol: (§1) Orbital blood collection from male ddy line mice of six weeks old (six animals per group) was carried out, and then 10 mL/kg of water or 0.1 g/kg of aqueous actein solution was orally administrated to each of them. After 30 minutes, 10 mL/kg of salad oil was orally administrated, orbital blood collection was performed after 180 minutes again, and blood plasma was separated to measure the triglyceride level.
# as §1, with “0.2 g/kg or 1.0” for “0.1”, “aqueous” for “aqueous actein”, “solution of Black cohosh extract (Example 1)” for “solution”, “administrated.” for “administrated to each of them.”
structure (smiles),measurement,setting,value
CC(=O)O[C@@H]1C[C@@]23C[C@@]24CC[C@H](O[C@@H]2OC[C@@H](O)[C@H](O)[C@H]2O)C(C)(C)[C@@H]4CC[C@H]3[C@]2(C)C[C@@H]3O[C@]4(C[C@@H](C)[C@@H]3[C@@]12C)O[C@H](O)[C@@]1(C)O[C@@H]41 [actein],"Triglyceride level in blood plasma, before salad oil administration","0.1 g/kg actein oral group, baseline blood collected before dosing, mean ± SD, six animals",110.4 ± 22.2 mg/dL
same,"Triglyceride level in blood plasma, after 180 minutes","0.1 g/kg actein oral, 30 min before 10 mL/kg salad oil, 180 min after oil, mean ± SD",248.6 ± 27.8 mg/dL
same,Triglyceride level in blood plasma after 180 minutes of salad oil tolerance (in words),"0.1 g/kg actein oral, vs water group",significantly suppressed
